In patent US20080293683A1, “Hormone Replacement Therapy” (University of Kansas Medical Center, priority 2007, published 2008):
Several values for one entry are separate records, joined by “and”; a condition that tells them apart may be missing. Equal entries are not always repeated. Where two headings read alike, the source gives them in different places.

What was measured:
recombinant human ERα = biological target: T1, recombinant human ERα (Homo sapiens, UniProt P03372); assay: ERα binding assay: competition of [3H]E2 binding by competing estrogens; details: for RBAα % (relative binding affinity for ERα, of E2): calculated against E2 = 100; for RBAα/RBAβ: ratio of relative binding affinities ERα over ERβ; for IC50: read-out: ERα IC50; for binding affinity for ERα (in words): concentrations up to 1000 nM; for RBAα/RBAβ determined by extrapolating the curves: extrapolated from curves of FIGS. 3-7, IC50 not reached
T1 construct: purchased PanVera Corporation (Madison, Wis.); host or cells: baculovirus-mediated expression system
T1 sequence (P03372 1-595): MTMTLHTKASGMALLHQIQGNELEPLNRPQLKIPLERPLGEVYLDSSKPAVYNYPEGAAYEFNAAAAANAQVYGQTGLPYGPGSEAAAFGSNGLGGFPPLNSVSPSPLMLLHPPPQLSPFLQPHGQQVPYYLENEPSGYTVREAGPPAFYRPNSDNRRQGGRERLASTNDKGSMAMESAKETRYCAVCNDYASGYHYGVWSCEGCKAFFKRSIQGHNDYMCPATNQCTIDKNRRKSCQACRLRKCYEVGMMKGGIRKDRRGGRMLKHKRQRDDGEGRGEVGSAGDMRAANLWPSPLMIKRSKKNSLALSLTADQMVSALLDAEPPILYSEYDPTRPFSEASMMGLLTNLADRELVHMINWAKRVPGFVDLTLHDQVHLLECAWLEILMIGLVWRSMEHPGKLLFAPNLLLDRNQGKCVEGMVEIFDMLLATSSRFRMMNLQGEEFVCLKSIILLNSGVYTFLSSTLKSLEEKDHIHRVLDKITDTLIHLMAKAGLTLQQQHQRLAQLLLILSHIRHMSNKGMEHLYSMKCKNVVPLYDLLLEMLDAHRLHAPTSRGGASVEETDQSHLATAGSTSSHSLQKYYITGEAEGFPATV
Excerpt: (§1) The recombinant human ERα and ERβ proteins and bovine serum albumin (BSA) were obtained from PanVera Corporation (Madison, Wis.). According to the supplier, the recombinant human ERα and ERβ were produced in a baculovirus-mediated expression system, and they were soluble and functionally active, with post-translational modifications similar to those found in mammalian cells. See Reid et al., Human estrogen receptor-α: Regulation by synthesis, modification and degradation, Cell. Mol. Life.
(§2) The following buffer solutions were used in the ER binding assays, and they were prepared beforehand and stored at 4° C. The binding buffer consisted of 10% glycerol, 2 mM dithiothreitol, 1 mg/mL BSA and 10 mM Tris-HCl at pH 7.5. The ERα washing buffer contained 40 mM Tris-HCl and 100 mM KCl (pH 7.4), but the ERG washing buffer contained only 40 mM Tris-HCl (adjusted to pH 7.4). The 50% hydroxylapatite slurry was prepared first by vigorously mixing 10 g hydroxylapatite with 60 mL of the Tris-HCl solution (50 mM, pH 7.4). Hydroxylapatite was then allowed to settle for 20 minutes at room temperature, and the supernatant was decanted. The above procedures were repeated 10 times, and afterwards hydroxylapatite was kept in the 50 mM Tris-HCl solution overnight at 4° C. Hydroxylapatite slurry was then adjusted to an approximate final concentration of 50% (v/v) using the same Tris-HCl solution and stored at 4° C., and the slurry was stable for up to several months.
(§3) Note that all of the estrogens were initially dissolved in pure ethanol to a stock concentration of 1 mM, and then further diluted to 100 μM with 20% aqueous ethanol. […] Immediately before the addition of the ERα or ERβ protein, it was diluted in the binding buffer and mixed gently with repetitive pipettings. […] The incubation mixture was then mixed gently and thoroughly with repetitive pipettings. […] The binding mixture was incubated at room temperature for two hours. At the end of the incubation, 100 μL of the hydroxylapatite slurry was added to each tube and the tubes were incubated on ice for 15 minutes with 3 times of brief vortexing. An aliquot (1 mL) of the appropriate washing buffer was added, mixed, and centrifuged at 10,000 g for five minutes, and the supernatants were discarded. This wash step was repeated twice. Hydroxylapatite pellets were then resuspended in 200 μL ethanol (followed by another rinse with 200 μL ethanol), and then the content was transferred to scintillation vials (containing 4 mL of the scintillation fluid) for measurement of ^3H-radioactivity with a liquid scintillation counter (Packard Tri-CARB 2900 TR; Downers Grove, Ill.).
(§4) To calculate the specific binding (pmol/mL) of the human ERα or ERβ protein at each concentration point, the following equation was used: […]
(§5) When a lower radioligand concentration is used, the corresponding IC50 value will also be relatively lower, but when the radioligand concentration increases, the corresponding IC50 value will also increase. […] Since the RBA value is a parameter that is independent of the radioligand concentration used, we thus have placed more emphasis on the RBA values instead of the absolute IC50 values in interpreting the physiological meanings of the data from in vitro receptor competition assays.

recombinant human ERβ = biological target: T2, recombinant human ERβ (Homo sapiens, UniProt Q92731); assay: ERβ binding assay: competition of [3H]E2 binding by competing estrogens; details: for RBAβ (%) (relative binding affinity for ERβ, of E2): calculated against E2 = 100; for binding affinity for ERβ (in words): concentrations up to 1000 nM
T2 construct: purchased PanVera Corporation (Madison, Wis.); host or cells: baculovirus-mediated expression system
Excerpt: as §1, §2, §3, §4, §5

[1] = [3H]E2 10 nM, competitor up to 1000 nM
[2] = [3H]E2 10 nM, competitor up to 1000 nM, read-out: ERβ IC50

T2 sequence (Q92731 whole entry): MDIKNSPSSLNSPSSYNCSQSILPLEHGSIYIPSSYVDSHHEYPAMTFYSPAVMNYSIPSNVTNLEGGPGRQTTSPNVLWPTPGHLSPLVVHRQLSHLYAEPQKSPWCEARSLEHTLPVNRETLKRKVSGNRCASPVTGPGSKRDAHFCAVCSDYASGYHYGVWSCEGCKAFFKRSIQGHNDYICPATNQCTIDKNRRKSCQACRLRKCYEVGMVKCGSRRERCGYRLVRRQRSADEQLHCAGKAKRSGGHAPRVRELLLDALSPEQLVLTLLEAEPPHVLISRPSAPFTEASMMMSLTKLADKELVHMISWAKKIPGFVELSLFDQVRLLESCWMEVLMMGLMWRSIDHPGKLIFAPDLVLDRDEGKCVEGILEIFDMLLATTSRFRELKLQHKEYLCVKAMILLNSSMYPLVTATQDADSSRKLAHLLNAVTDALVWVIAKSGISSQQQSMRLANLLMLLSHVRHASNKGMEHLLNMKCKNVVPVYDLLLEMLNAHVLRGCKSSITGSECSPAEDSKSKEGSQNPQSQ

## Cc1cc(O)cc2c1[C@H]1CC[C@]3(C)[C@@H](O)CC[C@H]3[C@@H]1CC2 [1-Methyl-E2, 1-Methylestradiol]
Recombinant human ERα
  RBAα % (relative binding affinity for ERα, of E2): 14%
  RBAα/RBAβ: 1.8
  IC50: 79.4 nM
Recombinant human ERα; listed as 1-methylestradiol
  RBAα/RBAβ: about 1.8
Recombinant human ERα; relative to E2
  decrease of binding affinity for ERα compared to E2: approximately 90%
Recombinant human ERβ
  RBAβ (%) (relative binding affinity for ERβ, of E2): 8%
Recombinant human ERβ; read-out: ERβ IC50
  IC50: 112 nM
Recombinant human ERβ; relative to E2
  decrease of binding affinity for ERβ compared to E2: approximately 90%

## COc1cc2c(cc1OC)[C@H]1CC[C@]3(C)C(=O)CC[C@H]3[C@@H]1CC2 [2,3-diMeO-E1, Estrone 2,3-dimethyl ether]
Recombinant human ERα
  IC50: > 1000 nM
Recombinant human ERβ; read-out: ERβ IC50
  IC50: > 1000 nM

## COc1cc2c(cc1OC)C1CCC3(C)C(O)CCC3C1CC2 (stereo not drawn) [2,3-diMeO-E2, 17β-Estradiol 2,3-dimethyl ether]
Recombinant human ERα
  IC50: > 1000 nM
Recombinant human ERβ; read-out: ERβ IC50
  IC50: > 1000 nM

## CC12CCC3c4cc(Br)c(O)cc4CCC3C1CCC2O (stereo not shown) [2-Br-E2, 2-Bromoestradiol]
Recombinant human ERα
  RBAα % (relative binding affinity for ERα, of E2): 4%
  RBAα/RBAβ: 10
  IC50: 281 nM
Recombinant human ERα; listed as 2-bromoestradiol
  RBAα/RBAβ: about 10
Recombinant human ERβ
  RBAβ (%) (relative binding affinity for ERβ, of E2): < 0.5% and 0.4%
Recombinant human ERβ; read-out: ERβ IC50
  IC50: 2510 nM

## CCOc1cc2c(cc1O)CCC1C2CCC2(C)C(O)CCC12 (stereo not shown) [2-Ethoxy-E2, 2-Ethoxyestradiol]
Recombinant human ERα
  binding affinity for ERα (in words): weak binding affinity
  IC50: > 1000 nM
Recombinant human ERβ
  binding affinity for ERβ (in words): weak binding affinity
Recombinant human ERβ; read-out: ERβ IC50
  IC50: > 1000 nM

## COc1cc2c(cc1O)CC[C@@H]1[C@@H]2CC[C@]2(C)C(=O)CC[C@@H]12 [2-MeO-E1, 2-Methoxyestrone]
Recombinant human ERα; [1]
  IC50: > 1000 nM
Recombinant human ERα
  binding affinity for ERα (in words): did not have appreciable binding affinity
  RBAα/RBAβ determined by extrapolating the curves: about 1
Recombinant human ERβ; [2]
  IC50: > 1000 nM
Recombinant human ERβ
  binding affinity for ERβ (in words): did not have appreciable binding affinity

## COc1cc2c(cc1O)CC[C@@H]1[C@@H]2CC[C@]2(C)[C@@H](O)CC[C@@H]12 [2-MeO-E2, 2-Methoxyestradiol]
Recombinant human ERα; [1]
  IC50: 501 nM
Recombinant human ERα
  RBAα % (relative binding affinity for ERα, of E2): 2%
  RBAα/RBAβ: 2
Recombinant human ERα; listed as 2-methoxyestradiol
  RBAα/RBAβ: about 2
Recombinant human ERβ; [2]
  IC50: 631 nM
Recombinant human ERβ
  RBAβ (%) (relative binding affinity for ERβ, of E2): 1%

## C[C@]12CC[C@@H]3c4cc(N)c(O)cc4CC[C@H]3[C@@H]1CCC2=O [2-NH2-E1, 2-Aminoestrone]
Recombinant human ERα
  RBAα % (relative binding affinity for ERα, of E2): 3%
  binding affinity for ERα (in words): very weak binding affinities
  RBAα/RBAβ: 7.5
  IC50: 398 nM
Recombinant human ERα; listed as 2-aminoestrone
  RBAα/RBAβ: about 7.5
Recombinant human ERβ
  RBAβ (%) (relative binding affinity for ERβ, of E2): 0.4%
  binding affinity for ERβ (in words): very weak binding affinities
Recombinant human ERβ; read-out: ERβ IC50
  IC50: 2510 nM

## C[C@]12CC[C@@H]3c4cc([N+](=O)[O-])c(O)cc4CC[C@H]3[C@@H]1CCC2=O [2-NO2-E1, 2-Nitroestrone]
Recombinant human ERα
  RBAα % (relative binding affinity for ERα, of E2): 1%
  binding affinity for ERα (in words): very weak binding affinities
  RBAα/RBAβ determined by extrapolating the curves: about 3
  IC50: 1580 nM
Recombinant human ERα; listed as 2-nitorestrone
  RBAα/RBAβ determined by extrapolating the curves: ~3
Recombinant human ERβ
  binding affinity for ERβ (in words): very weak binding affinities
Recombinant human ERβ; read-out: ERβ IC50
  IC50: > 1000 nM

## COc1cc2c(cc1O)[C@H]1CC[C@]3(C)C(=O)CC[C@H]3[C@@H]1CC2 [2-OH-3-MeO-E1, 2-Hydroxyestrone 3-methyl ether]
Recombinant human ERα
  binding affinity for ERα (in words): did not have appreciable binding affinity
  IC50: > 1000 nM
Recombinant human ERβ
  binding affinity for ERβ (in words): did not have appreciable binding affinity
Recombinant human ERβ; read-out: ERβ IC50
  IC50: > 1000 nM

## CC(=O)OC1C[C@]2(C)[C@@H](O)CC[C@H]2[C@@H]2CCc3cc(O)ccc3[C@@H]12 (stereo partly drawn) [11-Acetate-E2, 17β-Estradiol 11-acetate]
Recombinant human ERβ; [2]
  IC50: 19.9 nM

## C[C@]12CC[C@@H]3c4ccc(O)cc4CC[C@H]3[C@@H]1C[C@@H](O)[C@@H]2O [16α-OH-E2 (E3), 16α-Hydroxyestradiol (Estriol), reference compound]
Recombinant human ERβ; listed as E3
  preference of binding affinity for ERβ over ERα: more than five-fold
Recombinant human ERβ; read-out: ERβ IC50
  IC50: 25.1 nM

## C[C@]12CC[C@@H]3c4ccc(O)cc4CC[C@H]3[C@@H]1C[C@@H](O)[C@H]2O [16α-OH-E2-17α, 16α-Hydroxyestradiol-17α (16,17-Epiestriol)]
Recombinant human ERβ; read-out: ERβ IC50
  IC50: 11.2 nM
Recombinant human ERβ; relative to E2-17α
  binding affinity for ERβ, times higher than E2-17α: 16 times

## C[C@]12CC[C@@H]3c4ccc(O)cc4CC[C@H]3[C@@H]1C[C@H](O)[C@H]2O [16β-OH-E2-17α, 16β-Hydroxyestradiol-17α (16,17-Epiestriol)]
Recombinant human ERβ
  preference of binding affinity for ERβ over ERα: 18 fold
Recombinant human ERβ; read-out: ERβ IC50
  IC50: 70.8 nM

## C#CC1(O)CCC2C3CCc4cc(O)ccc4C3CCC21C (stereo not drawn) [17α-EE2, 17α-Ethynylestradiol, reference compound]
Recombinant human ERβ
  binding affinity for ERβ (in words): only about half of that of E2

## C[C@]12CCc3c(ccc4cc(O)ccc34)[C@@H]1CC[C@@H]2O [17β-Dihydroequilenin]
Recombinant human ERβ; [2]
  IC50: 8.9 nM

## O=C(CC(=O)c1ccccc1)c1ccccc1 [DBM, Dibenzoylmethane, reference compound]
Recombinant human ERβ
  IC50: > 1000 nM
  binding affinity for ERβ (in words): weak overall binding affinity

## C[C@]12CC[C@@H]3c4ccc(OS(=O)(=O)O)cc4CC[C@H]3[C@@H]1CCC2=O [E1-3-sulfate, Estrone 3-sulfate]
Recombinant human ERβ
  binding affinity for ERβ (in words): basically devoid of appreciable binding affinity
Recombinant human ERβ; listed as estrone-3-sulfate
  binding affinity for ERβ (in words): virtually no estrogen receptor binding affinity
Recombinant human ERβ; read-out: ERβ IC50
  IC50: > 1000 nM

## C[C@]12CC[C@@H]3c4ccc(O)cc4C[C@@H](CCCCCCOCc4ccccc4)[C@H]3[C@@H]1CC[C@@H]2O [E2-7α-(CH2)6OC6H5, 7α-(6-Benzyloxyhexanyl)-17β-estradiol]
Recombinant human ERβ; [2]
  IC50: 63.1 nM
